In publication PMC11840605, “Crystallographic and Thermodynamic Evidence of Negative Coupling in the Flavin-Dependent Tryptophan Halogenases AbeH and BorH” (ACS Omega, 2025):

Columns and labels:
AbeH [1] = biological target: T1, AbeH (uncultured bacterium, UniProt F6LWA5); assay: FAD fluorescence quenching titration with AbeH; assay type: binding, uncultured soil actinomycetes
Experimental: (§1) Quenching of FAD fluorescence quenching upon binding to AbeH was measured in the absence and presence of Trp in 20 mM Tris-HCl pH 8.0 and 100 mM NaCl using a Quantmaster 40 fluorimeter (Photon Technologies International). Trp and FAD solutions were prepared in 20 mM Tris-HCl pH 8, and concentrations were determined by absorbance at 280 and 450 nm, respectively. FAD fluorescence was measured using excitation at 450 nm (4 nm slit opening) and emission set at 525 nm (6 nm slit opening) using a fluorescence cuvette to collect 50 scans, which were averaged later during data processing in Microsoft Excel. […] Raw fluorescence intensities were corrected for the buffer, Trp, and AbeH background contributions. Quenched fluorescence intensity was plotted vs AbeH concentration and fit to eq 1 using GraphPad Prism 8.0 by nonlinear regression analysis. In eq 1, F = fractional saturation, ΔF = fluorescence quenching upon AbeH/FAD complex formation (calculated from the difference of FAD fluorescence intensity at different AbeH concentration), ΔFmax = maximum fluorescence change obtained from fit, [AbeHFAD] = FAD-bound AbeH, [AbeH]T = Total AbeH concentration, [FAD]T = Total FAD concentration, KD = equilibrium dissociation constant. […]
(§2) A. Fluorescence quenching observed from binding of Apo-AbeH ([…]) to […] FAD; […]

AbeH/Trp = AbeH/Trp (uncultured bacterium, UniProt F6LWA5); assay: FAD fluorescence quenching titration with AbeH preincubated with Trp; assay type: binding, uncultured soil actinomycetes
Experimental: as §1, §2

AbeH [2] = biological target: T1, AbeH; assay type: biochemical, uncultured soil actinomycetes; conditions: same reaction conditions
Experimental: To test the ability of BorH and AbeH to chlorinate and brominate other substrates, 100 μL reactions containing 5 μM AbeH or BorH, 10 μM of holo-AbeF or holo-BorF, 100 mM NaCl or NaBr, 2.5 mM NADH, and 0.5 mM substrate in HEPES pH 8.0 were incubated for 12 h at 37 °C with shaking at 230 rpm. The reactions were stopped by heating at 95 °C for 5 min and centrifuged at 12,000g for 5 min. Clarified reaction mixtures were analyzed using RP-HPLC on a Kromasil C18 column (100 Å pore size, 4.6 × 250 mm) mounted on a Waters 2695 HPLC. The gradient was as follows: 0–7.5 min, 5–50% B; 7.5–14 min, 50–100%; 14–25 min, 100% B; 25–40 min 100–5% B with flow rate 0.6 mL/min (Solvent A = H2O/CH3CN 95:5, 0.1% TFA; Solvent B = H2O/CH3CN 5/95, 0.1% TFA). Substrates and products were detected by monitoring UV absorbance at the λmax for each substrate. Product peak fractions were analyzed using ESI-MS on a SYNAPT HDMS mass spectrometer in positive ion mode with leucine enkephalin internal standard.

AbeH [3] = biological target: T1, AbeH; assay: Time-course of in vitro Trp chlorination and bromination by AbeH; assay type: biochemical, uncultured soil actinomycetes
Experimental: Time-course experiments were done using 1.7 μM AbeH, 3.3 μM holo-AbeF, 500 μM Trp, 2.5 mM NADH in 10 mM Na/KPO4 pH 8.2 with either 50 mM NaCl or 100 mM NaBr. Reactions were incubated for 5 min at 37 °C and NADH was added to start the reactions. Aliquots of 100 μL were quenched and analyzed by RP-HPLC at various time points. Unreacted substrate and product concentrations were calculated using peak areas and standard curves of Trp, 5-Cl-Trp, and 5-Br-Trp.
Figure S4: Time-course of in vitro Trp chlorination and bromination by AbeH.
Reaction conditions: 1.7 µM AbeH, 3.3 µM holo-AbeF, 0.5 mM Trp, 2.5 mM NADH, 10 mM Na/KPO4 pH 8.2, and either 50 mM NaCl (A) or 100 mM NaBr (B). Concentration of product formed was calculated from RP-HPLC chromatogram integrated A280 peak areas compared to standard curves of integrated peak areas of known concentrations of 5-Cl-Trp and 5-Br-Trp standards. Experiments were carried out in duplicate. (A) Time course of Trp chlorination by AbeH has chlorination specific activity of 87 µmol min-1 mg-1. (B) Time course of Trp bromination by AbeH has bromination specific activity of 34 µmol min-1 mg-1.
(1 picture or pasted object on this page, not shown here)

T1 sequence (F6LWA5 entry or part of it): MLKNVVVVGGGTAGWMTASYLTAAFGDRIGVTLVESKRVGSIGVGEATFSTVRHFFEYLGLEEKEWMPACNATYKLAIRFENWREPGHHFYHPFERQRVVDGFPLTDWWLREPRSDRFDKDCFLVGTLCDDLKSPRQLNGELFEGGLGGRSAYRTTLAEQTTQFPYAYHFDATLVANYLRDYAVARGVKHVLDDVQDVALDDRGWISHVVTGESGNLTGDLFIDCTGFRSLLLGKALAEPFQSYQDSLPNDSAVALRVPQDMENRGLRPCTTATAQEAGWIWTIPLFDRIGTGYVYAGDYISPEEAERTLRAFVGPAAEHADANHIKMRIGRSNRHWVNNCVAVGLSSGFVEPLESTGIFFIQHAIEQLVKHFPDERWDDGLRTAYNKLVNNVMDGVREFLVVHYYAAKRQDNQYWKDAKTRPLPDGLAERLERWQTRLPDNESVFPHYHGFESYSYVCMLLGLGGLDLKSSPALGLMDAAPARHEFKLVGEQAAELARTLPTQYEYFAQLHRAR
Chain of AbeH/Trp (F6LWA5 entry or part of it): as above

SMILES	Kd (AbeH [1]) [µM]	Kd (AbeH/Trp; AbeH/FAD KD, FAD fluorescence quenching (Figure S10 B), in the presence of 0.3 mM Trp) [µM]	Kd (AbeH/Trp; KD, FAD binding to AbeH/Trp, FAD fluorescence, AbeH preincubated with Trp) [µM]	AbeH bromination compared with chlorination of the substrate, in words (AbeH [2])	Specific activity of AbeH for Trp chlorination relative to Trp bromination (AbeH [3])	Specific activity of AbeH for chlorination of Trp (AbeH [3]; 1.7 μM AbeH, 500 μM Trp, 50 mM NaCl, 37 °C) [μM min^–1 mg^–1]	Specific activity of AbeH for bromination of Trp (AbeH [3]; 1.7 μM AbeH, 500 μM Trp, 100 mM NaBr, 37 °C) [μM min^–1 mg^–1]	AbeH chlorination specific activity (AbeH [3]; Figure S4 A, 0.5 mM Trp, 50 mM NaCl) [µmol/min/mg]	AbeH bromination specific activity (AbeH [3]; Figure S4 B, 0.5 mM Trp, 100 mM NaBr) [µmol/min/mg]
Cc1cc2nc3c(=O)[nH]c(=O)nc-3n(C[C@H](O)[C@H](O)[C@H](O)COP(=O)(O)OP(=O)(O)OC[C@H]3O[C@@H](n4cnc5c(N)ncnc54)[C@H](O)[C@@H]3O)c2cc1C [FAD]	1.6 ± 0.4	3.1	7.7 ± 2.2						
N[C@@H](Cc1c[nH]c2ccccc12)C(=O)O [Tryptophan, L-tryptophan]				prefers chlorination over bromination	approximately 2.5 ×	87	34	87	34
